The source of these data is publication PMC7230911, “Meroterpenoids from the Brown Alga Cystoseira usneoides as Potential Anti-Inflammatory and Lung Anticancer Agents” (Marine Drugs, 2020).

One data set has as its system TNF-α. The data set is described as follows: TNF-α production in LPS-stimulated THP-1 macrophages (ELISA). Format: cell-based. As to conditions: Homo sapiens, 1 h pretreatment, then LPS 1 μg/mL 24 h; for inhibition at 8 µg/mL: 8 μg/mL; for inhibition at 4 µg/mL: 4 μg/mL. As for the experimental part: (§1) To determine the effects of the AMTs 1–8 on the production of TNF-α, IL-6, and IL-1β, THP-1 macrophaghes were pretreated with the compounds and then stimulated with LPS, as the triggering factor to stimulate the cytokines production. The levels of pro-inflammatory cytokines in the cell supernatants were determined using the enzyme-linked immunosorbent (ELISA) kits.
(§2) Figure 2 Meroterpenoids 1–8 inhibit LPS-induced expression of TNF-α, IL-6, and IL-1β in THP-1 macrophages (A, B, and C) respectively. Cells were pretreated for 1 h with the compounds (1, 2, 3, 4, 7, and 8 at 8 μg/mL; 5 and 6 at 4 μg/mL), followed by 24 h treatment with LPS. TNF-α (A), IL-6 (B) and IL-1β (C) contents in the culture medium were determined by ELISA. Dexametasone (DEX) was used as positive control. Data are expressed as means ± SE from three independent experiments. Statistical significance is indicated (+++p < 0.001 and +++< 0.01 vs. Control; respectively * p < 0.05, ** p < 0.01, *** p < 0.001 vs. Control + LPS).
(§3) THP-1 cells were plated at a density of 3 × 10^5 cells/mL in 24-well plates and incubated with PMA (0.2 μM) for 72 h in a humidified atmosphere of 5% CO2 at 37 °C. The macrophages were pre-treated for 1 h with AMTs 1–8 (8 μg/mL for compounds 1, 2, 3, 4, 7, and 8, and 4 μg/mL for 5 and 6) and then stimulated with lipopolysaccharide (LPS, 1 μg/mL) for another 24 h. Dexamethasone (Dex) was used as positive reference compound at 1 μM. The viability of cells was greater than 95% throughout the experiment. The levels of TNF-α, IL-6, and IL-1ß in supernatants were measured with enzyme-linked immune-sorbent assay (ELISA) kits (Diaclone GEN-PROBE, Besançon cedex, France) according to the manufacturer’s protocols. The absorbance was determined at 450 nm using a microplate reader. To calculate the concentration of cytokines, a standard curve was constructed using serial dilutions of cytokine standards provided with the kit.
On the technique in general: An ELISA detects its analyte on a solid surface through an enzyme-linked reagent.

A further data set deals with THP-1 macrophages. Description: Cell viability of THP-1 macrophages (SRB assay). Type of data set: cell-based, human. The note with it: LPS-stimulated THP-1 macrophages, 0–100 µg/mL, 48 and 72 h, data not shown. The protocol:
The cytotoxic effect of AMTs 1–8 on LPS-stimulated THP-1 macrophages was determined at different concentrations and incubation times (0–100 µg/mL, 48 and 72 h) using the SRB assay. […] Therefore, in order to rule out cytotoxic effects, compounds 1, 2, 3, 4, 7, and 8 were tested on THP-1 cells at maximum concentration of 8 µg/mL while 5 and 6 were tested at maximum concentration of 4 µg/mL. The viability of THP-1 cells was measured by the SRB assay. The cells were seeded in 96-well plates with the growth medium at a density of 1 × 10^4 cells per well, and differentiation into macrophages was induced by 0.2 μM of phorbol myristate acetate (PMA). Three days after differentiation into macrophages, the cells were treated with various concentrations (0, 3.125, 6.25, 12.5, 25, 50, 100 µg/mL) of the AMTs 1–8 in fresh medium and incubated for another 72 h. Then, the cells were fixed with 50 μL of TCA (50%) and processed, as described in the literature.
Background: In SRB staining, fixed cells bind dye roughly in proportion to their protein.

In the next data set the test system is COX-2. The data set is described as follows: COX-2 protein expression in LPS-stimulated THP-1 macrophages (western blot). Format: cell-based, human. As to conditions: 1 h pretreatment, then LPS 1 μg/mL 24 h. As for the experimental part: COX-2 is the key enzyme regulating the production of prostaglandins, which are the central mediators of inflammation. On the other hand, iNOS enzyme represents an important molecular target closely involved in inflammatory responses. Thus, the effect of the AMTs 1–8 on LPS-induced COX-2 and iNOS protein expression was investigated by western blot analysis.
Figure 3 Effect of meroterpenoids 1–8 on LPS-induced COX-2 and iNOS protein expression in THP-1 macrophages. Cells were pretreated for 1 h with the compounds (1, 2, 3, 4, 7, and 8 at 8 μg/mL; 5 and 6 at 4 μg/mL) and then stimulated with LPS (1 μg/mL). Cytosolic lysates from 24 h-stimulated cells were separated on 10% SDS-PAGE. COX-2, iNOS, and β-actin were detected by western blot analysis. Data are expressed as means ± SE from three independent experiments. Statistical significance is indicated (+++ p < 0.001 and ++ p < 0.01, vs. Control, respectively; * p < 0.05, and ** p < 0.01 vs. Control + LPS).
Western blotting was used to measure the protein levels of COX-2 and iNOS [65]. THP-1 macrophages were plated at a density of 1 × 10^6 cells/mL in six-well plates, treated for 1 h with compounds 1–8 (8 μg/mL for compounds 1, 2, 3, 4, 7, and 8, and 4 μg/mL for compounds 5 and 6), and then stimulated with 1 μg/mL of LPS in medium at 37 °C. After 24 h, the cells were washed with ice-cold PBS, collected, suspended in the lysis buffer (250 mM NaCl, 50 mM Tris (pH 7.5), 0.5 mM EDTA, 5 mM EGTA, 8 mM MgCl2, 1 mM PMSF, 0.01 mg/mL pepstatin A, 0.01 mg/mL leupeptin, 0.01 mg/mL aprotinin, 1% Triton X-100) and centrifuged at 12,000× g at 4 °C for 3 min to yield cell lysates. Proteins concentration in cell lysates was determined by Bio-Rad Protein Assay, based on the method of Bradford (BioRad, Richmond CA, USA). Cytosolic proteins (50 μg) were separated with 10% SDS-polyacrylamide gel electrophoresis and transferred on PVDF membranes. The membranes were then blocked with 5% (w/v) non-fat dry milk in Tris-buffered saline containing 0.1% Tween-20 (pH 7.4) (TBST) buffer at room temperature for 1 h. The membranes were washed three times (10 min) in TBST buffer and incubated with specific primary antibodies anti-COX-2 (1:3000) or anti-iNOS (1:1000) diluted in 5% (w/v) non-fat dry milk in TBST buffer, at 4 °C overnight. Then, the membranes were incubated with peroxidase-conjugated […] goat anti-rabbit IgG (1: 1000) for 1 h at room temperature. To ascertain that blots were loaded with equal amounts of protein lysates, they were also incubated in the presence of the antibody against β-actin protein (1:10,000). After washing the membrane again with TBST buffer (10 min) three times, the antibody was visualized using an enhanced chemiluminescence light-detecting kit (Super-Signal West Pico Chemiluminescent Substrate, Pierce, IL, USA), according to the manufacturer’s instructions and exposed to an X-ray film (GE Healthcare Ltd., Amersham, UK). The protein band densities were quantified using a Scientific Imaging Systems (Biophotonics ImageJ Analysis Software, National Institute of Mental Health, Bethesda, MD, USA).
In general terms: A western blot detects proteins with antibodies after separation by electrophoresis.

Another data set deals with IL-6. The data set is described as follows: IL-6 production in LPS-stimulated THP-1 macrophages (ELISA). As to conditions: Homo sapiens, 1 h pretreatment, then LPS 1 μg/mL 24 h; for inhibition at 8 µg/mL: 8 μg/mL; for inhibition at 4 µg/mL: 4 μg/mL. Format: cell-based. As for the experimental part: as §1, §2, §3

With `COc1c(C)cc(O)cc1C/C=C(\C)CC(=O)/C=C(/C)CCCC(C)(O)C(=O)/C=C/C(C)(C)O` (centres unmarked) [Compound 1, usneoidone Z], the results for the inhibition at 8 µg/mL in the data set on TNF-α and in the data set on IL-6 were 73.1% and 71.2%, respectively. Besides, in the data set on THP-1 macrophages, the “concentration up to which cell viability is not affected” value is “up to 10 µg/mL”. Further, the “effect on expression of COX-2 (in words)” value with COX-2 (8 μg/mL) is listed as “no significant effect”.

On to `COc1c(C)cc(O)cc1C/C=C(\C)CC(=O)/C=C(\C)CCCC(C)(O)C(=O)/C=C/C(C)(C)O` (centres unmarked) [Compound 2, 11-hydroxy-1’-O-methylamentadione], for which the inhibition at 8 µg/mL in the data set with TNF-α stood at 64.1%; in the data set with IL-6, 80.8%. Further, the “concentration up to which cell viability is not affected” value in the data set with THP-1 macrophages was “up to 10 µg/mL”. The “effect on expression of COX-2 (in words)” value with COX-2 (8 μg/mL) is on record as “significantly down-regulated”.

`COc1c(C)cc(O)cc1C/C=C(\C)CC(=O)/C=C(\C)CCCC(C)=O` [Compound 3, cystomexicone B]: the figures for the inhibition at 8 µg/mL in the data set on TNF-α and in the data set with IL-6 were 57.1% and 69.2%, respectively. Besides, the “concentration up to which cell viability is not affected” value with THP-1 macrophages is “up to 10 µg/mL”. Further, the “decrease of COX-2 levels” value in the data set on COX-2 (8 μg/mL) came out at 53.35%.

On to `COc1c(C)cc(O)cc1C/C=C(\C)CC(=O)/C=C(/C)CCCC(C)=O` [Compound 4, cystomexicone A], for which the inhibition at 8 µg/mL in the data set on TNF-α was 42.2 to 43.3%; with IL-6 it was 43%. The “concentration up to which cell viability is not affected” value in the data set with THP-1 macrophages is listed as “up to 10 µg/mL”. The “effect on expression of COX-2 (in words)” value in the data set with COX-2 (8 μg/mL) was “significantly down-regulated”.

In the case of `COc1c(C)cc(O)cc1C/C=C(\C)CC(=O)/C=C(/C)CCCC(C)C(=O)/C=C/C(C)(C)O` (stereo not drawn) [Compound 5, 6-cis-amentadione-1′-methyl ether], the inhibition at 4 µg/mL with TNF-α stood at 55.3%; in the data set with IL-6, 67.8%. In the data set on THP-1 macrophages, the “concentration up to which cell viability is not affected” value is reported as “up to 6 µg/mL”. Further, the “decrease of COX-2 levels” value in the data set on COX-2 (4 μg/mL) worked out at 53.52%.

On to `COc1c(C)cc(O)cc1C/C=C(\C)CC(=O)/C=C(\C)CCCC(C)C(=O)/C=C/C(C)(C)O` (centres unmarked) [Compound 6, amentadione-1′-methyl ether], for which the inhibition at 4 µg/mL with TNF-α is 42.2 to 43.3%; in the data set with IL-6, 50.9%. Besides, in the data set on THP-1 macrophages, the “concentration up to which cell viability is not affected” value is given as “up to 6 µg/mL”. In the data set on COX-2 (4 μg/mL), the “decrease of COX-2 levels” value is 64.23%.

`COc1c(C)cc(O)cc1/C=C/C(C)(O)CC(=O)/C=C(/C)CCCC(C)C(=O)/C=C/C(C)(C)O` (centres unmarked) [Compound 7, cystodione A]: the inhibition at 8 µg/mL in the data set with TNF-α is 42.2 to 43.3%; in the data set on IL-6, 49.6%. Besides, the “concentration up to which cell viability is not affected” value with THP-1 macrophages was “up to 10 µg/mL”. The “decrease of COX-2 levels” value with COX-2 (8 μg/mL) worked out at 58.05%.

Consider `COc1c(C)cc(O)cc1/C=C/C(C)(O)CC(=O)/C=C(\C)CCCC(C)C(=O)/C=C/C(C)(C)O` (centres unmarked) [Compound 8, cystodione B], for which the figures for the inhibition at 8 µg/mL in the data set on TNF-α and in the data set with IL-6 were 52.6% and 58.9%, respectively. The “concentration up to which cell viability is not affected” value with THP-1 macrophages is reported as “up to 10 µg/mL”. The “effect on expression of COX-2 (in words)” value with COX-2 (8 μg/mL) is “no significant effect”.

What is called inhibition is the change of the read-out against control, counted positive when it falls.
